Data reported in patent publication US20240197874A1, “MATERIALS AND METHODS FOR IMPROVING EFFICACY OF ADOPTIVE IMMUNE CELL THERAPY” (priority 2021, published 2024).

Experiments:
Naïve CD4 T cells [1] = test: Percentage of live cells (Annexin V negative) of activated naïve CD4 T cells with increasing inhibitor doses; type: cell-based, human; settings: for toxicity of doses used for lysosome inhibition: chloroquine 20 μM, Bafilomycin A1 10 nM
Method: FIGS. 2A-2H. Naïve CD4 T cells from old adults lose lysosomal function but maintain mTORC1 activity after activation on day 5. (FIG. 2A and FIG. 2B) Naïve CD4 T cells from young and old individuals were activated with anti-CD3/anti-CD28 beads for 5 days followed by DQBSA treatments for 6 hours. Fluorescence of cleaved DQ-BSA was analyzed by flow cytometry to determine lysosome activities (FIG. 2A). Phospho-S6K1 (Thr389) protein expression (right) was determined by Western blotting (FIG. 2B). (FIG. 2C) Naïve CD4 T cells were activated for 5 days in the presence of increasing doses of chloroquine (CQ), bafilomycin A1 (BafA1) or JPH203. The percentage of live cells was determined as the frequency of Annexin V negative population. Mean+SD of four experiments. (FIGS. 2D-2G) Naïve CD4 T cells were activated for 5 days with the last 2-day culture with vehicle, chloroquine (CQ) or bafilomycin A1 (BafA1). Alternatively, cells were transfected with control or TFEB siRNA and activated for 5 days. (FIG. 2D) Lysosomal activities were determined as in (FIG. 2A). (FIG. 2E) mTORC1 activity was determined as in (FIG. 2B). (FIG. 2F) TFEB protein silencing were confirmed by Western blotting on day 5 after activation. (FIG. 2G) AKT phosphorylation was determined by Western blotting on day 5 after activation. **p<0.01; NS, not significant. (FIG. 2H) Naïve CD4 T cells from three old individuals were activated and treated with CQ as in (FIG. 2D). SLC7A5 and c-MYC protein expression were determined. Comparison by two-tailed paired t test. *p<0.05, **p<0.01; NS, not significant.
Isolated human naïve CD4 T cells were activated with Dynabeads Human T-Activator CD3/CD28 (11132D, Thermo Fisher Scientific) in RPMI 1640 (Sigma) supplemented with 10% fetal bovine serum (FBS) and 100 U/mL penicillin and streptomycin (Thermo Fisher Scientific). Mouse T cells were activated in plates coated with 8 μg/mL anti-CD3 Ab (16-0032-82, eBioscience) and 8 μg/mL anti-CD28 Ab (16-0281-82, eBioscience) in culture medium supplemented with 10 ng/ml IL-2 (21212, Peprotech). […]

[2] = system: lysosomal cathepsin genes (CTSB, CTSD, CTSH and CTSS); test: Lysosomal cathepsin gene expression by qRT-PCR; type: cell-based, human
Method: FIGS. 6A-6F. Sustained activation of late endosomal mTORC1 suppresses lysosomal activities in naïve CD4 T cell responses. (FIGS. 6A-6F) Naïve CD4 T cells from young (Y) and old (O) individuals were activated for 5 days. Indicated inhibitor or vehicle control was added for the last 2 days of culture (FIGS. 6A-6B and FIGS. 6E-6F). Alternatively, cells were transfected with control or VPS39 siRNA and then activated with anti-CD3/anti-CD28 beads for 5 days (FIGS. 6C-6D). (FIG. 6A, FIG. 6C, FIG. 6E, and FIG. 6F) Lysosomal cathepsins expressions were determined by qRT-PCR (left); results are normalized to control samples using 18S rRNA as internal control; mean+SD of four experiments; comparison by two-tailed paired t-test. Lysosomal activities were determined by flow cytometry-based analysis of cells treated with 5 μg/mL of DQ-BSA for 6 hours. Results are shown as representative histograms (middle) and cumulative data from four experiments (right, two-tailed paired t-test). The gray histogram represents DQ-BSA free samples. […]
Total RNA was isolated using the RNeasy Plus Mini Kit (74134, QIAGEN) and converted to cDNA using the SuperScript VILO cDNA Synthesis Kit (11754, Invitrogen). Quantitative RT-PCR was performed on the ABI 7900HT system (Applied Biosystems) using Power SYBR Green PCR Master Mix (4368706, Thermo Fisher Scientific), according to the manufacturer's instructions.

Naïve CD4 T cells [3] = test: DQ-BSA lysosomal activity assay in activated naïve CD4 T cells; type: cell-based, human
Method: Cells were treated with 5 μg/mL of DQ-BSA (D12050, Thermo Fisher Scientific) diluted in prewarmed medium and incubated at 37° ° C. for 6 hours. Cells were then briefly washed once with ice-cold PBS containing 2% FBS and kept on ice. Fluorescence of cleaved BSA-DQ was analyzed by flow cytometry.

mTORC1 [4] = type: cell-based, human; settings: for S6K1 phosphorylation (mTORC1 activity) under lysosome inhibition: young individuals, day 5, last 2 days with inhibitor
PD-1 = type: cell-based, human; settings: T cells from old adults; day 5
mTORC1 [5] = test: Endosome isolation and in vitro mTORC1 kinase activity assay toward S6K1; type: biochemical, human; settings: cells pre-treated 2 hours with 1 μM inhibitor; day 3
[6] = CQ and JPH203-cotreated young cells vs CQ alone
[7] = young individuals, day 5, last 2 days with inhibitor
[8] = day 5-activated T cells from old adults

## Nc1cc(COc2c(Cl)cc(C[C@H](N)C(=O)O)cc2Cl)c2oc(-c3ccccc3)nc2c1 [JPH203]
Naïve CD4 T cells [1]; 5 μM, titration experiments, activated naïve CD4 T cells
  cytotoxicity (percentage of live cells, Annexin V negative): not cytotoxic
[2]; [6]
  lysosomal cathepsins: increased
Naïve CD4 T cells [3]; [6]
  lysosomal activities: increased
mTORC1 [4]; 5 μM, phosphorylation of S6RP, titration experiments
  inhibition of mTORC1 activity: about 50%
mTORC1 [4]; day 3 after activation, young and old cells, 5 μM
  mTORC1 activity on day 3: reduced mTORC1 activity in both young and old cells
mTORC1 [4]; day 5, old adults, inhibitor for last 2 days, 5 μM
  excess mTORC1 activity on day 5 in old activated T cells: sensitive to SLC7A5 inhibition

## CO/C1=C\C(C)=C\[C@@H](C)[C@@H](O)[C@@H](C)C/C(C)=C/C=C/[C@H](OC)[C@@H]([C@@H](C)[C@@H](O)[C@H](C)[C@@]2(O)C[C@@H](O)[C@H](C)[C@@H](C(C)C)O2)OC1=O [Bafilomycin A1]
Naïve CD4 T cells [1]
  toxicity of doses used for lysosome inhibition: nontoxic
Naïve CD4 T cells [3]; [7]
  lysosomal activities: reduced lysosomal activities
mTORC1 [4]
  S6K1 phosphorylation (mTORC1 activity) under lysosome inhibition: neither reduced S6K1

## CCC(=O)N1CCN(c2ccc(-n3c(=O)ccc4cnc5ccc(-c6cnc7ccccc7c6)cc5c43)cc2C(F)(F)F)CC1 [Torin 1]
[2]; [8]
  TFEB-dependent transcription of lysosomal cathepsin genes: partially restored
PD-1
  cell surface protein expression of PD-1: reduced cell surface protein expression
  transcripts of PD-1: without effects on transcripts
Naïve CD4 T cells [3]; [8]
  lysosomal proteolytic activities: partially restored

## CCN(CC)CCCC(C)Nc1ccnc2cc(Cl)ccc12 (centres unmarked) [chloroquine, Chloroquine]
Naïve CD4 T cells [1]
  toxicity of doses used for lysosome inhibition: nontoxic
Naïve CD4 T cells [3]; [7]
  lysosomal activities: reduced lysosomal activities
mTORC1 [4]
  S6K1 phosphorylation (mTORC1 activity) under lysosome inhibition: neither reduced S6K1

## Cl.Cl.NC1(c2ccc(-c3nc4ccn5c(=O)[nH]nc5c4cc3-c3ccccc3)cc2)CCC1 [AKT inhibitor, MK-2206 2HCl]
mTORC1 [5]
  mTORC1 kinase activity of endosome isolates toward the substrate S6K1: not seen
